# Results reported in patent publication US10245264B2, “Substituted imidazo[1,2-a]pyrazines as soluble guanylate cyclase activators” (Merck Sharp & Dohme Corp., priority 2015, dated 2019).
# Target: T1, sGC α1/β1 heterodimer stably expressed in CHO-K1 cells (CHO-K1/sGC) (Homo sapiens, UniProt Q02108+Q02153)
# T1 construct: expressed in transfected cells
# T1 sequence (Q02108 1-690): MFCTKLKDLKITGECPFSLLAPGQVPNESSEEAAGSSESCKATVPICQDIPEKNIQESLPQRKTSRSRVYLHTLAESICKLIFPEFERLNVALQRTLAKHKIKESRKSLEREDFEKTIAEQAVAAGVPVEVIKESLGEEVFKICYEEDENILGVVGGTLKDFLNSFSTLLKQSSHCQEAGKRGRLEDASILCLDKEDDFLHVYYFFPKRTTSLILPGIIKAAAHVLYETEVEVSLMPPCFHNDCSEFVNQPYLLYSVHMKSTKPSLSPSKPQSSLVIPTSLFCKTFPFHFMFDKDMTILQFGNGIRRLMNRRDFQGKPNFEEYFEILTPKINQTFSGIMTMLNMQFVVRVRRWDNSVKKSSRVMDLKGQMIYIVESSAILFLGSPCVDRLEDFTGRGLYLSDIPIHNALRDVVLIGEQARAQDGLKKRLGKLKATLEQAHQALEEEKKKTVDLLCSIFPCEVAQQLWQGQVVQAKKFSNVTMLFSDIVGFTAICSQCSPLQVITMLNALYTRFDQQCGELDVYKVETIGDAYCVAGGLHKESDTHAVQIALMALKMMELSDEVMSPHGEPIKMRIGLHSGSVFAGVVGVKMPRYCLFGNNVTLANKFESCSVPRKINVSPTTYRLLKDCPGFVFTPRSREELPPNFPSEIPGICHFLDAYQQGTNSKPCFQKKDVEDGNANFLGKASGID
# T1 sequence (Q02153 1-619): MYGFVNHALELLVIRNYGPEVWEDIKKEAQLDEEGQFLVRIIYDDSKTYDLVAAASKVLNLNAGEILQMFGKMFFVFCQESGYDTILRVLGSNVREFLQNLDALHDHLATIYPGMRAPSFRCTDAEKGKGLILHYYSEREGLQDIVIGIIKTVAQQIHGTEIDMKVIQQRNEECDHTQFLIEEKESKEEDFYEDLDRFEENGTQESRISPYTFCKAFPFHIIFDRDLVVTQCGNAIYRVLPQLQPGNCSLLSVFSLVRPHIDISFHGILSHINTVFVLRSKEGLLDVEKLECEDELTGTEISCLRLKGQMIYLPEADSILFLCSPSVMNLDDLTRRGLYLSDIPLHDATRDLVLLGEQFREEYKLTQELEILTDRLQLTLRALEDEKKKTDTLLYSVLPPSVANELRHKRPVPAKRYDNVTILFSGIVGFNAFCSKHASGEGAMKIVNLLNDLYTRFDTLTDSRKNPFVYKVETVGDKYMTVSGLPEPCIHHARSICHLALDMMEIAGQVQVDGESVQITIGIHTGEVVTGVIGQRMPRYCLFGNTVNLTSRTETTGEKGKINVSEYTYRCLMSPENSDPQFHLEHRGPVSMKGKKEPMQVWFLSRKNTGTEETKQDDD
# Experiment: Cell-based sGC functional assay (CASA assay), cGMP generation by HTRF
# Settings: for Emax: CHO-K1, maximum cGMP production of Compound A set to 100% activation, read-out: % Act. (percent activation relative to Compound A); for EC50: CHO-K1/sGC cells, 1 hr at 37° C., 4P fit, presence or absence of DETA-NO not given, read-out: IP (nM) (inflection point)
# Summary of the method: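 CHO-K1/sGC cells (4×10^5/mL) in EBSS with 5 mM MgCl2, 10 mM HEPES, 0.05% BSA and 0.5 mM IBMX, treated 1 hr at 37° C with compounds (2.5% DMSO) with or without 1 μM DETA-NO. cGMP measured by HTRF, expressed as % of a reference heme-dependent activator's maximum; inflection point and fold induction from 4P fit.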
Emax [%],EC50 [nM],Compound
110,13,"CC1(c2ccc(F)cc2)C(=O)Nc2nc(-c3cn4ccnc4c(OCC4CCCC4)n3)nc(N)c21 (centres unmarked) [Example 45A, 4-amino-2-[8-(cyclopentyl-methoxy)imidazo [1,2-a]pyrazin-6-yl]-5-(4-fluoro-phenyl)-5-methyl-5,7-dihydro-6H-pyrrolo[2,3-d] pyrimidin-6-one]"
108,912,"CC1(c2ccc(F)cc2)C(=O)Nc2nc(-c3cn4ccnc4c(OC4CCCC4)n3)nc(N)c21 (centres unmarked) [Example 46A, 4-amino-2-[8-(cyclopentyl-oxy)imidazo [1,2-a]pyrazin-6-yl]-5-(4-fluorophenyl)-5-methyl-5,7-dihydro-6H-pyrrolo[2,3-d] pyrimidin-6-one]"
106,26,"CC1(c2ccc(Cl)cc2)C(=O)Nc2nc(-c3cn4ccnc4c(OCc4ccccc4)n3)nc(N)c21 (centres unmarked) [Example 48A, 4-amino-2-[8-(benzyloxy)imidazo[1,2-a]pyrazin-6-yl]-5-(4-chlorophenyl)-5-methyl-5,7-dihydro-6H-pyrrolo[2,3-d] pyrimidin-6-one]"
101,244,"COCCNc1nc(-c2nc(N)c3c(n2)NC(=O)C3(C)c2ccc(F)cc2)cn2ccnc12 (centres unmarked) [Example 52A, 4-amino-5-(4-fluorophenyl)-2-{8-[(2-methoxyethyl)amino]imidazo [1,2-a]pyrazin-6-yl}-5-methyl-5,7-dihydro-6H-pyrrolo[2,3-d] pyrimidin-6-one]"
110,948,"CC1(c2ccc(F)cc2)C(=O)Nc2nc(-c3cn4ccnc4c(NCC4CC(F)(F)C4)n3)nc(N)c21 (centres unmarked) [Example 53A, 4-amino-2-(8-{[(3,3-difluoro-cyclobutyl)methyl]amino}imidazo[1,2-a]pyrazin-6-yl)-5-(4-fluoro-phenyl)-5-methyl-5,7-dihydro-6H-pyrrolo[2,3-d] pyrimidin-6-one]"
98,266,"CCC1(CNc2nc(-c3nc(N)c4c(n3)NC(=O)C4(C)c3ccc(F)cc3)cn3ccnc23)CC1 (centres unmarked) [Example 54A, 4-amino-2-(8-{[(1-ethyl-cyclopropyl)methyl]amino}imidazo[1,2-a]pyrazin-6-yl)-5-(4-fluoro-phenyl)-5-methyl-5,7-dihydro-6H-pyrrolo[2,3-d] pyrimidin-6-one]"
92,35,"CC1(c2ccc(F)cc2)C(=O)Nc2nc(-c3cn4ccnc4c(NCC4CCCCC4)n3)nc(N)c21 (centres unmarked) [Example 55A, 4-amino-2-{8-[(cyclohexyl-methyl)amino]imidazo[1,2-a]pyrazin-6-yl}-5-(4-fluoro-phenyl)-5-methyl-5,7-dihydro-6H-pyrrolo[2,3-d] pyrimidin-6-one]"
110,51,"CC1(c2ccc(Cl)cc2)C(=O)Nc2nc(-c3cn4ccnc4c(NCC4CC4(C)C)n3)nc(N)c21 (centres unmarked) [Example 56A, 4-amino-5-(4-chlorophenyl)-2-(8-{[(2,2-dimethylcyclo-propyl)methyl]amino}imidazo [1,2-a]pyrazin-6-yl)-5-methyl-5,7-dihydro-6H-pyrrolo [2,3-d]pyrimidin-6-one]"
123,47,"CCC1(CNc2nc(-c3nc(N)c4c(n3)NC(=O)C4(C)c3ccc(Cl)cc3)cn3ccnc23)CC1 (centres unmarked) [Example 57A, 4-amino-5-(4-chlorophenyl)-2-(8-{[(1-ethylcyclo-propyl)methyl]amino}imidazo [1,2-a]pyrazin-6-yl)-5-methyl-5,7-dihydro-6H-pyrrolo[2,3-d] pyrimidin-6-one]"
109,163,"CC1(c2ccc(Cl)cc2)C(=O)Nc2nc(-c3cn4ccnc4c(NCC4CC(F)(F)C4)n3)nc(N)c21 (centres unmarked) [Example 58A, 4-amino-5-(4-chlorophenyl)-2-(8-{[(3,3-difluorocyclo-butyl)methyl]amino}imidazo [1,2-a]pyrazin-6-yl)-5-methyl-5,7-dihydro-6H-pyrrolo[2,3-d] pyrimidin-6-one]"
